How the values were obtained:
[1] = tested on: mildew of wheat (Blumeria graminis forma specialis tritici); assay: Activity against mildew of wheat (protective, potted wheat seedlings); type: in vivo; settings: wheat 'Kanzler', 7 days
Description: (§1) The active compounds, separately or together, were formulated as a 10% strength emulsion in a mixture of 70% by weight of cyclohexanone, 20% by weight of Nekanil® LN (Lutensol® AP6, wetting agent having emulsifying and dispersing action based on ethoxylated alkylphenols) and 10% by weight of Emulphor® EL (Emulan® EL, emulsifier based on ethoxylated fatty alcohols) and correspondingly diluted with water to the desired concentration.
(§2) Evaluation was carried out by determining the infected leaf areas in percent. These percentages were converted into efficacies. The efficacy (W) was calculated as follows using Abbot's formula: […]
The expected efficacies of the mixtures of the active compounds were determined using Colby's formula [R. S. Colby, Weeds 15, 20-22 (1967)] and compared with the observed efficacies. […]
Leaves of potted wheat seedlings of the culivar “Kanzler” were sprayed to run off point with an aqueous preparation of active compound which had been prepared from a stock solution made of 10% of active compound, 85% of cyclohexanone and 5% of emulsifier and, 24 hours after the spray coating had dried on, dusted with spores of mildew of wheat (Blumeria graminis forma specialis tritici). […] After 7 days, the extent of the mildew development was determined visually in % infection of the total leaf area. […]

Puccinia recondita = assay: Curative activity against Puccinia recondita on wheat (wheat leaf rust); type: in vivo; settings: wheat 'Kanzler', 7 days
Description: as §1, §2
α corresponds to the fungal infection of the treated plants in % and β corresponds to the fungal infection of the untreated (control) plants in % An efficacy of 0 means that the infection level of the treated plants corresponds to that of the untreated control plants; an efficacy of 100 means that the treated plants were not infected.
The expected efficacies of the mixtures of the active compounds were determined using Colby's formula [R. S. Colby, Weeds 15, 20-22 (1967)] and compared with the observed efficacies.
Colby's formula: E=x+y−x·y/100
E expected efficacy, expressed in % of the untreated control, when using the mixture of the active compounds A and B at the concentrations a and b x efficacy, expressed in % of the untreated control, when using active compound A at a concentration of a y efficacy, expressed in % of the untreated control, when using active compound B at a concentration of b.
Leaves of potted wheat seedlings of the cultivar “Kanzler” were dusted with spores of leaf rust (Puccinia recondita). Thereafter, the pots were kept for 24 hours in a chamber of high atmospheric humidity (90 to 95%) and at 20-22° C. During this time, the spores germinated and the germinal tubes penetrated into the leaf tissue. […] Thereafter, the extent of the rust fungus development on the leaves was determined. […]

Substance: spiroxamine [spiroxamine (II)]
- Efficacy in % of the untreated control ([1]; 1.5 ppm in the spray liquor): 0%
- Efficacy in % of the untreated control ([1]; 3 ppm in the spray liquor): 20%
- Efficacy in % of the untreated control (Puccinia recondita; 1.5 ppm in the spray liquor): 0%
- Efficacy in % of the untreated control (Puccinia recondita; 3 ppm in the spray liquor): 0%
- Efficacy in % of the untreated control (Puccinia recondita; 12.5 ppm in the spray liquor): 30%
